Key:
[1] = test system: T cells; test: Inhibition of T cell proliferation (antigen PPD induced, [3H]thymidine incorporation); format: cell-based; conditions: PPD (10 μg/ml), 144 hours culture, mean of triplicate cultures
Description: The chemical compounds used according to the invention prevent immunological proliferation by selective inhibition of the Ca^2+-activated K-channels in T- and B-lymphocytes. This effect may be verified using various proliferation assays. In this experiment the proliferative assay described by Ødum et al [Ødum N, Kanner S B, Ledbetter J A, & Svejgaard A; J. Immunol. 1993 150 (12) 5289-5298] was used.
Assays were performed in culture medium (RPMI 1640; available from Gibco, Grand Island, N.Y.) supplemented with 10% pooled human serum, 2 mM L-glutamine, 100 μg/ml penicillin, and 100 μg/ml streptomycin (available from Novo Nordisk, Copenhagen, Denmark) in 96-well round bottom tissue culture plates (available from Nunc, Roskilde, Denmark) with a final volume of 200 μl.
T cells were pre-incubated for three hours with the test compounds before addition of antigen (PPD, purified protein derivative, 10 μg/ml). T cells were cultured at 5×10^4 cells/well for 144 hours. Twelve hours before harvest, [^3H]thymidine ([…]) was added. The cells were harvested onto glass fibre filters, and the [^3H]thymidine incorporation was measured in a scintillation counter. The results were expressed as mean counts per minute (cpm) from triplicate cultures.

| Structure (SMILES) | T Cell Proliferation ([1]; test compound 2.5 μM) | T Cell Proliferation ([1]; test compound 10 μM) | T Cell Proliferation ([1]; test compound 25 μM) | melting point |
| --- | --- | --- | --- | --- |
| CC(C)c1cccc(C(C)C)c1-c1cccnc1 [Compound 1B, 3-(2,6-diisopropylphenyl)-pyridine] | 19.5 cpm × 10^−3 | 19 cpm × 10^−3 | 14 cpm × 10^−3 | – |
| Cc1ccc(C)n1-c1c(-c2ccccc2)cc(Cl)cc1-c1ccccc1 | – | – | – | 178 to 180 °C |
